Laboratory results published in patent US20100076091A1, “COMPOSITION AND METHOD FOR SUPPRESSING LIPOOXIDATION OF ERYTHROCYTE” (TOHOKU UNIVERSITY, priority 2007, published 2010).
Values belong to the compound of their own block, whether it stands above or below them.

What was measured:
[1] = tested on: peroxidized phospholipids in erythrocytes; experiment: Erythrocyte peroxidized phospholipid level (PCOOH, PEOOH) after oral ingestion, by CL-HPLC; type: in vivo, human; conditions: within 4 weeks after the start of ingestion, lutein 9.7 mg/day; 6 normal subjects
Experimental: Packed cells (washed erythrocytes, 1.5 mL) prepared in a manner similar to that in 1-1 of Example 1 were added to a 50-mL screw cap glass centrifugation tube and then 1.5 mL of a 0.1 mM EDTA-2Na aqueous solution was added, followed by gentle agitation. The solution was allowed to stand in ice for 15 minutes and then 15 mL of isopropanol was added, followed by gentle agitation. The solution was allowed to stand for 30 minutes in ice and then 15 mL of chloroform was added. After vortexing, the solution was allowed to stand for 30 minutes in ice and then centrifuged (1000 g, 10 minutes, 4° C.). […] Solvent removal was carried out under nitrogen and then the total lipid level was measured by a gravimetric method. […]
Peroxidized phospholipids (phosphatidyl choline hydroperoxide (PCOOH) and phosphatidylethanolamine hydroperoxide (PEOOH)) in erythrocytes were measured by chemiluminescence-high performance liquid chromatography (CL-HPLC). […] After separation of PCOOH and PEOOH from other lipid components by HPLC, PCOOH and PEOOH are reacted with a luminescence reagent and then hydroperoxide-group-derived chemiluminescence is detected and quantitatively determined. Specifically, the above obtained chloroform/methanol (2:1, v/v) solution (40 μL) of total erythrocyte lipids was subjected to CL-HPLC and then peroxidized phospholipids were quantitatively determined. […]

[2] = human, in vivo
Experimental: Blood (12 mL) of a subject after the subject had fasted for 12 hours was collected using EDTA. Blood was centrifuged (1000 g, 10 minutes, 4° C.), so that 6 mL of erythrocytes was obtained. To wash erythrocytes, 5-fold volume (30 mL) of physiological phosphate buffer (pH 8.0) was added and then centrifugation was carried out (2300 g, 10 minutes, 4° C.), thereby removing supernatants. This procedure was repeated 3 times, so that 4 mL of packed cells (washed erythrocytes) was obtained. • 1-2. Extraction of Carotenoid from Erythrocytes and Quantitative Determination Thereof
Two (2) mL of water was added to 2 mL of packed cells (washed erythrocytes) for hemolysis of erythrocytes. […] Fifty (50) μL of the solution was subjected to the following UV-HPLC analysis, so that erythrocyte carotenoid was quantitatively determined. […]
To examine whether the ingested xanthophyll would be actually transferred to erythrocytes so as to suppress accumulation of peroxidized phospholipids, lutein that exists at the highest concentration among human erythrocyte xanthophyll members was administered to 6 normal subjects (3 male subjects and 3 female subjects) for 4 weeks. […] Erythrocytes were separated from the thus obtained blood and then the concentration of erythrocyte lutein and the peroxidized phospholipid level were measured. […]

erythrocytes = experiment: Search for ingredients capable of preventing lipoperoxidation of erythrocytes

Compound: CC1=C[C@H](O)CC(C)(C)[C@H]1/C=C/C(C)=C/C=C/C(C)=C/C=C/C=C(C)/C=C/C=C(C)/C=C/C1=C(C)C[C@@H](O)CC1(C)C [lutein]
- peroxidized phospholipid level in erythrocytes compared with the level before the start of ingestion [1]: significantly decreased

- concentration of erythrocyte zeaxanthin, average [2]: 52 pmol/g hemoglobin
Compound: CC1=C(/C=C/C(C)=C/C=C/C(C)=C/C=C/C=C(C)/C=C/C=C(C)/C=C/C2=C(C)C[C@@H](O)CC2(C)C)C(C)(C)C[C@H](O)C1 [zeaxanthin]

Compound: Cc1c(C)c2c(c(C)c1O)CC[C@@](C)(CCC[C@H](C)CCC[C@H](C)CCCC(C)C)O2 [α-tocopherol]
- prevention of lipoperoxidation of erythrocytes (erythrocytes): has no such effects
